Literature values in paper PMC12840679, “Rational Design, Synthesis and Pharmacological Evaluation of Chalcones as Dual-Acting Compounds—Histamine H3 Receptor Ligands and MAO-B Inhibitors” (International Journal of Molecular Sciences, 2026).

Biological target: hH3R (Homo sapiens, UniProt Q9Y5N1)
Details: HEK293 cells

Chain of hH3R (Q9Y5N1 whole entry): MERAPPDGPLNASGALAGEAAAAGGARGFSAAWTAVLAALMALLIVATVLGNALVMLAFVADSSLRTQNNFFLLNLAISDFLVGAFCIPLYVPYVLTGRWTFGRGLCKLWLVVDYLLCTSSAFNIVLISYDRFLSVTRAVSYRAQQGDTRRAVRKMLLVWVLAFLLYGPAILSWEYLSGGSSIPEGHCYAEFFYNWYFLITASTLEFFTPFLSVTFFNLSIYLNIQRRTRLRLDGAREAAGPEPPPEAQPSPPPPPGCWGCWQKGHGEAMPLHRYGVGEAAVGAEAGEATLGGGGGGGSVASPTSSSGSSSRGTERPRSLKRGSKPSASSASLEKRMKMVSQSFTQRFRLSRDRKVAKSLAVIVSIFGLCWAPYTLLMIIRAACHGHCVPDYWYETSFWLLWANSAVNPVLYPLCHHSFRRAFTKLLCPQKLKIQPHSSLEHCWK

For CC(C)(C)c1ccc(OCCCN2CCCCC2)cc1 [DL76], the Ki is listed as 58 nM.
